Reference: PMC7211198, “Phase 1b study of a small molecule antagonist of human chemokine (C-C motif) receptor 2 (PF-04136309) in combination with nab-paclitaxel/gemcitabine in first-line treatment of metastatic pancreatic ductal adenocarcinoma” (Investigational New Drugs, 2019)

Test: Safety and tolerability (TEAEs, SAEs, DLTs, RP2D) in phase Ib study
Type: in vivo, human
Conditions: 500 mg BID + nab-P/Gem
Description: Safety assessments included collection of adverse events (AEs), serious AEs (SAEs), vital signs and physical examination, electrocardiogram (12-lead), laboratory assessments, including pregnancy test, and verification of concomitant treatments. A patient was considered as DLT-evaluable if the patient experienced a DLT or if otherwise, in the absence of a DLT, the patient received at least 85% of the planned doses of each study drug in the first 28-day cycle. DLTs were defined as any of the following events occurring in the first cycle of treatment (days 1 through 28) and attributed (i.e., judged to be at least possibly related) to the combination of PF-04136309 plus nab-paclitaxel/gemcitabine, where relationship with the combination could not be ruled out. DLTs were hematologic events of grade 4 neutropenia lasting >5 days; febrile neutropenia; grade ≥ 3 neutropenic infection; grade ≥ 3 thrombocytopenia with grade ≥ 2 bleeding; grade 4 thrombocytopenia; and nonhematologic events of grade 3 toxicities. Exceptions included nausea and vomiting responding to prophylaxis and/or treatment and lasting <7 days from each chemotherapy infusion period; diarrhea responding to treatment and lasting <7 days; grade 3 fatigue lasting <7 days; grade 3 QT interval corrected for heart rate prolongation (>500 msec) persisting after correction of any reversible causes; and/or grade 3 aspartate aminotransferase (AST) and/or alanine aminotransferase (ALT) increase lasting ≤7 days. All grade 4 toxicities and a delay of >2 weeks in receiving the next scheduled cycle due to persistent treatment-related toxicities were considered DLTs. AEs meeting DLT criteria in the dose-expansion phase included grade 3 events of diarrhea, hypokalemia, and dysesthesia and grade 4 hypoxia. […] AEs were graded according to the National Cancer Institute Common Terminology Criteria for Adverse Events, version 4.03.

O=C(NCC(=O)N1CC[C@H](N[C@H]2CC[C@@](O)(c3ccc(-c4ncccn4)cn3)CC2)C1)c1cccc(C(F)(F)F)c1 [PF-04136309]
Alopecia, Grade 4 (all-causality TEAE): 0 n (%)
Alopecia, Grade 5 (all-causality TEAE): 0 n (%)
Alopecia, Total (all-causality TEAE): 10 (58.8) n (%)
Anemia, Grade 1 (all-causality TEAE): 2 (11.8) n (%)
Anemia, Grade 2 (all-causality TEAE): 5 (29.4) n (%)
Anemia, Grade 3 (all-causality TEAE): 4 (23.5) n (%)
Anemia, Grade 4 (all-causality TEAE): 0 n (%)
Anemia, Grade 5 (all-causality TEAE): 0 n (%)
Anemia, Total (all-causality TEAE): 11 (64.7) n (%)
Any AE, Grade 1 (all-causality TEAE): 0 n (%)
Any AE, Grade 2 (all-causality TEAE): 1 (5.9) n (%)
Any AE, Grade 3 (all-causality TEAE): 12 (70.6) n (%)
Any AE, Grade 4 (all-causality TEAE): 3 (17.6) n (%)
Any AE, Grade 5 (all-causality TEAE): 1 (5.9) n (%)
Any AE, Total (all-causality TEAE): 17 (100.0) n (%)
Appetite decrease, Grade 1 (all-causality TEAE): 5 (29.4) n (%)
Appetite decrease, Grade 2 (all-causality TEAE): 0 n (%)
Appetite decrease, Grade 3 (all-causality TEAE): 1 (5.9) n (%)
Appetite decrease, Grade 4 (all-causality TEAE): 0 n (%)
Appetite decrease, Grade 5 (all-causality TEAE): 0 n (%)
Appetite decrease, Total (all-causality TEAE): 6 (35.3) n (%)
Blood alkaline phosphatase, Grade 1 (all-causality TEAE): 1 (5.9) n (%)
Blood alkaline phosphatase, Grade 2 (all-causality TEAE): 4 (23.5) n (%)
Blood alkaline phosphatase, Grade 3 (all-causality TEAE): 2 (11.8) n (%)
Blood alkaline phosphatase, Grade 4 (all-causality TEAE): 0 n (%)
Blood alkaline phosphatase, Grade 5 (all-causality TEAE): 0 n (%)
Blood alkaline phosphatase, Total (all-causality TEAE): 7 (41.2) n (%)
Constipation, Grade 1 (all-causality TEAE): 5 (29.4) n (%)
Constipation, Grade 2 (all-causality TEAE): 2 (11.8) n (%)
Constipation, Grade 3 (all-causality TEAE): 0 n (%)
Constipation, Grade 4 (all-causality TEAE): 0 n (%)
Constipation, Grade 5 (all-causality TEAE): 0 n (%)
Constipation, Total (all-causality TEAE): 7 (41.2) n (%)
Diarrhea, Grade 1 (all-causality TEAE): 4 (23.5) n (%)
Diarrhea, Grade 2 (all-causality TEAE): 2 (11.8) n (%)
Diarrhea, Grade 3 (all-causality TEAE): 1 (5.9) n (%)
Diarrhea, Grade 4 (all-causality TEAE): 0 n (%)
Diarrhea, Grade 5 (all-causality TEAE): 0 n (%)
Diarrhea, Total (all-causality TEAE): 7 (41.2) n (%)
Edema, peripheral, Grade 1 (all-causality TEAE): 7 (41.2) n (%)
Edema, peripheral, Grade 2 (all-causality TEAE): 1 (5.9) n (%)
Edema, peripheral, Grade 3 (all-causality TEAE): 0 n (%)
Edema, peripheral, Grade 4 (all-causality TEAE): 0 n (%)
Edema, peripheral, Grade 5 (all-causality TEAE): 0 n (%)
Edema, peripheral, Total (all-causality TEAE): 8 (47.1) n (%)
Fatigue, Grade 1 (all-causality TEAE): 4 (23.5) n (%)
Fatigue, Grade 2 (all-causality TEAE): 4 (23.5) n (%)
Fatigue, Grade 3 (all-causality TEAE): 5 (29.4) n (%)
Fatigue, Grade 4 (all-causality TEAE): 0 n (%)
Fatigue, Grade 5 (all-causality TEAE): 0 n (%)
Fatigue, Total (all-causality TEAE): 13 (76.5) n (%)
Headache, Grade 1 (all-causality TEAE): 4 (23.5) n (%)
Headache, Grade 2 (all-causality TEAE): 1 (5.9) n (%)
Headache, Grade 3 (all-causality TEAE): 0 n (%)
Headache, Grade 4 (all-causality TEAE): 0 n (%)
Headache, Grade 5 (all-causality TEAE): 0 n (%)
Headache, Total (all-causality TEAE): 5 (29.4) n (%)
Hyperglycemia, Grade 1 (all-causality TEAE): 2 (11.8) n (%)
Hyperglycemia, Grade 2 (all-causality TEAE): 3 (17.6) n (%)
Hyperglycemia, Grade 3 (all-causality TEAE): 3 (17.6) n (%)
Hyperglycemia, Grade 4 (all-causality TEAE): 0 n (%)
Hyperglycemia, Grade 5 (all-causality TEAE): 0 n (%)
Hyperglycemia, Total (all-causality TEAE): 8 (47.1) n (%)
Insomnia, Grade 1 (all-causality TEAE): 7 (41.2) n (%)
Insomnia, Grade 2 (all-causality TEAE): 1 (5.9) n (%)
Insomnia, Grade 3 (all-causality TEAE): 0 n (%)
Insomnia, Grade 4 (all-causality TEAE): 0 n (%)
Insomnia, Grade 5 (all-causality TEAE): 0 n (%)
Insomnia, Total (all-causality TEAE): 8 (47.1) n (%)
Lymphopenia, Grade 1 (all-causality TEAE): 0 n (%)
Lymphopenia, Grade 2 (all-causality TEAE): 0 n (%)
Lymphopenia, Grade 3 (all-causality TEAE): 5 (29.4) n (%)
Lymphopenia, Grade 4 (all-causality TEAE): 0 n (%)
Lymphopenia, Grade 5 (all-causality TEAE): 0 n (%)
Lymphopenia, Total (all-causality TEAE): 5 (29.4) n (%)
Nausea, Grade 1 (all-causality TEAE): 12 (70.6) n (%)
Nausea, Grade 2 (all-causality TEAE): 2 (11.8) n (%)
Nausea, Grade 3 (all-causality TEAE): 0 n (%)
Nausea, Grade 4 (all-causality TEAE): 0 n (%)
Nausea, Grade 5 (all-causality TEAE): 0 n (%)
Nausea, Total (all-causality TEAE): 14 (82.4) n (%)
Neuropathy peripheral, Grade 1 (all-causality TEAE): 8 (47.1) n (%)
Neuropathy peripheral, Grade 2 (all-causality TEAE): 1 (5.9) n (%)
Neuropathy peripheral, Grade 3 (all-causality TEAE): 0 n (%)
Neuropathy peripheral, Grade 4 (all-causality TEAE): 0 n (%)
Neuropathy peripheral, Grade 5 (all-causality TEAE): 0 n (%)
Neuropathy peripheral, Total (all-causality TEAE): 9 (52.9) n (%)
Pyrexia, Grade 1 (all-causality TEAE): 7 (41.2) n (%)
Pyrexia, Grade 2 (all-causality TEAE): 5 (29.4) n (%)
Pyrexia, Grade 3 (all-causality TEAE): 0 n (%)
Pyrexia, Grade 4 (all-causality TEAE): 0 n (%)
Pyrexia, Grade 5 (all-causality TEAE): 0 n (%)
Pyrexia, Total (all-causality TEAE): 12 (70.6) n (%)
Rash, Grade 1 (all-causality TEAE): 7 (41.2) n (%)
Rash, Grade 2 (all-causality TEAE): 1 (5.9) n (%)
Rash, Grade 3 (all-causality TEAE): 0 n (%)
Rash, Grade 4 (all-causality TEAE): 0 n (%)
Rash, Grade 5 (all-causality TEAE): 0 n (%)
Rash, Total (all-causality TEAE): 8 (47.1) n (%)
Vomiting, Grade 1 (all-causality TEAE): 6 (35.3) n (%)
Vomiting, Grade 2 (all-causality TEAE): 1 (5.9) n (%)
Vomiting, Grade 3 (all-causality TEAE): 0 n (%)
Vomiting, Grade 4 (all-causality TEAE): 0 n (%)
Vomiting, Grade 5 (all-causality TEAE): 0 n (%)
Vomiting, Total (all-causality TEAE): 7 (41.2) n (%)
Weight decreased, Grade 1 (all-causality TEAE): 5 (29.4) n (%)
Weight decreased, Grade 2 (all-causality TEAE): 4 (23.5) n (%)
Weight decreased, Grade 3 (all-causality TEAE): 0 n (%)
Weight decreased, Grade 4 (all-causality TEAE): 0 n (%)
Weight decreased, Grade 5 (all-causality TEAE): 0 n (%)
Weight decreased, Total (all-causality TEAE): 9 (52.9) n (%)
Any SAE, Grade 1 (treatment-related SAE): 0 n (%)
Any SAE, Grade 2 (treatment-related SAE): 0 n (%)
